Drawing on patent publication US20250163104A1, “MACROCYCLIC IMMUNOMODULATORS” (priority 2021, published 2025), this text covers IC50 for 15 compounds.

Where a SMILES comes first, the peptide text is derived from it. Bridges are numbered along the chain shown (N, C = ends). [ ]: non-standard residue; d: D form. The star is where a group is joined. ξ: configuration not given here. Phe(4-COOH) = N[C@@H](Cc1ccc(C(=O)O)cc1)C(=O)O; Bip = N[C@@H](Cc1ccc(-c2ccccc2)cc1)C(=O)O; Phe(3-OMe) = COc1cccc(C[C@H](N)C(=O)O)c1; Phe(3-Me) = Cc1cccc(C[C@H](N)C(=O)O)c1; Dap(N3) = [N-]=[N+]=NC[C@H](N)C(=O)O; ξLys(N3) = [N-]=[N+]=NCCCCC(N)C(=O)O; Aha = [N-]=[N+]=NCC[C@H](N)C(=O)O; 4Pal = N[C@@H](Cc1ccncc1)C(=O)O; Cha = N[C@@H](CC1CCCCC1)C(=O)O; Cit = NC(=O)NCCC[C@H](N)C(=O)O; Carboxymethyl = O=C(O)C*; Orn = NCCC[C@H](N)C(=O)O; Pra = C#CC[C@H](N)C(=O)O; Dab = NCC[C@H](N)C(=O)O; Dap = NC[C@H](N)C(=O)O; Propargyl = C#CC*

The target of this experiment is T1, human PD-1 / PD-L1-Ig binding on Jurkat cell line over-expressing human PD-1 (Jurkat-PD-1) (Homo sapiens, UniProt Q15116).
T1 construct: expressed in transfected cells; host or cells: Jurkat
T1 sequence (Q15116 25-288): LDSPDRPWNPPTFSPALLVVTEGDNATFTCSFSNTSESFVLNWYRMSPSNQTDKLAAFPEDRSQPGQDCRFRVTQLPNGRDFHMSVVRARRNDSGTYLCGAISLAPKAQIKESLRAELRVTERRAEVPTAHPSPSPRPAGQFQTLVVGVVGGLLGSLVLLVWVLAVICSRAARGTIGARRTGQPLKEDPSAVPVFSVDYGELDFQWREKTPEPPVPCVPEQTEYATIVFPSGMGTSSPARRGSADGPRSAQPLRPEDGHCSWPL
Description: Jurkat-PD-1 Cell Binding High-Content Screening Assay (CBA). The conditions noted are these: Jurkat-PD-1 cells, PE-labeled PD-L1-Ig 20 nM final; read-out: Jurkat HPD1_PDL1 IC50. It is filed as cell-based. The essentials: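 PE-PD-L1-Ig 20 nM final; cells in DMEM/10% FCS; cpd pre-incubation 2 h, 37° C; ligand 1 h; PFA fix + Hoechst 33342; high-content imaging read-out.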
A word on the IC50: it is the midpoint of a concentration-inhibition curve. As for `C#CCOc1ccc(C[C@@H]2NC(=O)[C@H](CN)NC(=O)CSC[C@@H](C(=O)NC(CCCCN=[N+]=[N-])C(N)=O)NC(=O)[C@H]([C@@H](C)O)NC(=O)[C@H](C(C)C)NC(=O)[C@H](CC3CCCCC3)NC(=O)[C@H](CCN)NC(=O)[C@@H](CC(C)C)NC(=O)[C@H](CCCN)NC(=O)[C@H](CCC(=O)O)NC(=O)[C@H](Cc3ccc(-c4ccccc4)cc3)NC(=O)[C@H](C(C)C)NC(=O)[C@H](Cc3c[nH]c4ccccc34)NC(=O)[C@H](CC(=O)O)NC2=O)cc1` (stereo partly drawn) [Compound 1538] ({CH2CO}-[Dap]Y(Propargyl)DWV[Bip]E[Orn][dL][Dab][Cha]VTC[ξLys(N3)]-NH2; thioether N-14), the IC50 is 135 nM.
To `C#CC[C@H](NC(=O)[C@@H]1CSCC(=O)N[C@@H](CN)C(=O)N[C@@H](CN=[N+]=[N-])C(=O)N[C@@H](CC(=O)O)C(=O)N[C@@H](Cc2c[nH]c3ccccc23)C(=O)N[C@@H](C(C)C)C(=O)N[C@@H](Cc2ccc(-c3ccccc3)cc2)C(=O)N[C@@H](CCC(=O)O)C(=O)N[C@@H](CCCN)C(=O)N[C@H](CC(C)C)C(=O)N[C@@H](CCN)C(=O)N[C@@H](CC2CCCCC2)C(=O)N[C@@H](C(C)C)C(=O)N[C@@H]([C@@H](C)O)C(=O)N1)C(N)=O` [Compound 1539] ({CH2CO}-[Dap][Dap(N3)]DWV[Bip]E[Orn][dL][Dab][Cha]VTC[Pra]-NH2; thioether N-14) belongs 85.7 nM; to `C#CC[C@H](NC(=O)[C@@H]1CSCC(=O)N[C@@H](CN)C(=O)N[C@@H](CCN=[N+]=[N-])C(=O)N[C@@H](CC(=O)O)C(=O)N[C@@H](Cc2c[nH]c3ccccc23)C(=O)N[C@@H](C(C)C)C(=O)N[C@@H](Cc2ccc(-c3ccccc3)cc2)C(=O)N[C@@H](CCC(=O)O)C(=O)N[C@@H](CCCN)C(=O)N[C@H](CC(C)C)C(=O)N[C@@H](CCN)C(=O)N[C@@H](CC2CCCCC2)C(=O)N[C@@H](C(C)C)C(=O)N[C@@H]([C@@H](C)O)C(=O)N1)C(N)=O` [Compound 1540] ({CH2CO}-[Dap][Aha]DWV[Bip]E[Orn][dL][Dab][Cha]VTC[Pra]-NH2; thioether N-14), 87.4 nM.
Take `COc1cccc(C[C@@H]2NC(=O)[C@H](CC(=O)O)NC(=O)[C@H](Cc3ccc(C(=O)O)cc3)NC(=O)[C@H](Cc3ccc(OCC(=O)O)cc3)NC(=O)CSC[C@@H](C(=O)N[C@@H](C)C(N)=O)NC(=O)[C@H]([C@@H](C)O)NC(=O)[C@H](C(C)C)NC(=O)[C@H](CC3CCCCC3)NC(=O)[C@H](CCN)NC(=O)[C@@H](CC(C)C)NC(=O)[C@H](CCCN)NC(=O)[C@H](CCC(=O)O)NC(=O)[C@H](Cc3ccc(-c4ccccc4)cc3)NC(=O)[C@H](C(C)C)NC2=O)c1` [Compound 1541]: the half-inhibitory concentration (IC50) was determined as 16.6 nM.
With `COc1cccc(C[C@@H]2NC(=O)[C@H](CC(=O)O)NC(=O)[C@H](Cc3ccc(OCC(=O)O)cc3)NC(=O)[C@H](Cc3ccccc3)NC(=O)CSC[C@@H](C(=O)N[C@@H](C)C(N)=O)NC(=O)[C@H]([C@@H](C)O)NC(=O)[C@H](C(C)C)NC(=O)[C@H](CC3CCCCC3)NC(=O)[C@H](CCN)NC(=O)[C@@H](CC(C)C)NC(=O)[C@H](CCCN)NC(=O)[C@H](CCC(=O)O)NC(=O)[C@H](Cc3ccc(-c4ccccc4)cc3)NC(=O)[C@H](C(C)C)NC2=O)c1` [Compound 1542] ({CH2CO}-FY(Carboxymethyl)D[Phe(3-OMe)]V[Bip]E[Orn][dL][Dab][Cha]VTCA-NH2; thioether N-14), the IC50 worked out at 18.6 nM.
On to `COc1cccc(C[C@@H]2NC(=O)[C@H](CC(=O)O)NC(=O)[C@H](Cc3ccc(O)cc3)NC(=O)[C@H](Cc3ccncc3)NC(=O)CSC[C@@H](C(=O)N[C@@H](C)C(N)=O)NC(=O)[C@H]([C@@H](C)O)NC(=O)[C@H](C(C)C)NC(=O)[C@H](CC3CCCCC3)NC(=O)[C@H](CCN)NC(=O)[C@@H](CC(C)C)NC(=O)[C@H](CCCN)NC(=O)[C@H](CCC(=O)O)NC(=O)[C@H](Cc3ccc(-c4ccccc4)cc3)NC(=O)[C@H](C(C)C)NC2=O)c1` [Compound 1543], for which the IC50 was determined as 27.7 nM.
Under `COc1cccc(C[C@@H]2NC(=O)[C@H](CC(=O)O)NC(=O)[C@H](Cc3ccc(OCC(=O)O)cc3)NC(=O)[C@H](Cc3ccncc3)NC(=O)CSC[C@@H](C(=O)N[C@@H](C)C(N)=O)NC(=O)[C@H]([C@@H](C)O)NC(=O)[C@H](C(C)C)NC(=O)[C@H](CC3CCCCC3)NC(=O)[C@H](CCN)NC(=O)[C@@H](CC(C)C)NC(=O)[C@H](CCCN)NC(=O)[C@H](CCC(=O)O)NC(=O)[C@H](Cc3ccc(-c4ccccc4)cc3)NC(=O)[C@H](C(C)C)NC2=O)c1` [Compound 1544] stands 10.5 nM; under `COc1cccc(C[C@@H]2NC(=O)[C@H](CC(=O)O)NC(=O)[C@H](Cc3ccc(OCC(=O)O)cc3)NC(=O)[C@H](Cc3cccnc3)NC(=O)CSC[C@@H](C(=O)N[C@@H](C)C(N)=O)NC(=O)[C@H]([C@@H](C)O)NC(=O)[C@H](C(C)C)NC(=O)[C@H](CC3CCCCC3)NC(=O)[C@H](CCN)NC(=O)[C@@H](CC(C)C)NC(=O)[C@H](CCCN)NC(=O)[C@H](CCC(=O)O)NC(=O)[C@H](Cc3ccc(-c4ccccc4)cc3)NC(=O)[C@H](C(C)C)NC2=O)c1` [Compound 1545], 17.8 nM; under `COc1cccc(C[C@@H]2NC(=O)[C@H](CC(=O)O)NC(=O)[C@H](Cc3ccncc3)NC(=O)[C@H](CN)NC(=O)CSC[C@@H](C(=O)N[C@@H](C)C(N)=O)NC(=O)[C@H]([C@@H](C)O)NC(=O)[C@H](C(C)C)NC(=O)[C@H](CC3CCCCC3)NC(=O)[C@H](CCN)NC(=O)[C@@H](CC(C)C)NC(=O)[C@H](CCCN)NC(=O)[C@H](CCC(=O)O)NC(=O)[C@H](Cc3ccc(-c4ccccc4)cc3)NC(=O)[C@H](C(C)C)NC2=O)c1` [Compound 1546] ({CH2CO}-[Dap][4Pal]D[Phe(3-OMe)]V[Bip]E[Orn][dL][Dab][Cha]VTCA-NH2; thioether N-14), 9 nM.
To `CC[C@H](C)[C@@H]1NC(=O)[C@H](Cc2ccc(-c3ccccc3)cc2)NC(=O)[C@H](C(C)C)NC(=O)[C@H](Cc2cccc(C)c2)NC(=O)[C@H](CC(=O)O)NC(=O)[C@H](Cc2ccc(C(=O)O)cc2)NC(=O)[C@H](Cc2ccncc2)NC(=O)CSC[C@@H](C(N)=O)NC(=O)[C@H]([C@@H](C)O)NC(=O)[C@H](C(C)C)NC(=O)[C@H](CC2CCCCC2)NC(=O)[C@H](CCN)NC(=O)[C@@H](CC(C)C)NC(=O)[C@H](CCCN)NC1=O` [Compound 1547] ({CH2CO}-[4Pal][Phe(4-COOH)]D[Phe(3-Me)]V[Bip]I[Orn][dL][Dab][Cha]VTC-NH2; thioether N-14) belongs 15.9 nM; to `Cc1cccc(C[C@@H]2NC(=O)[C@H](CC(=O)O)NC(=O)[C@H](Cc3ccc(C(=O)O)cc3)NC(=O)[C@H](Cc3ccncc3)NC(=O)CSC[C@@H](C(N)=O)NC(=O)[C@H]([C@@H](C)O)NC(=O)[C@H](C(C)C)NC(=O)[C@H](CC3CCCCC3)NC(=O)[C@H](CCN)NC(=O)[C@@H](CC(C)C)NC(=O)[C@H](CCCN)NC(=O)[C@H](C(C)C)NC(=O)[C@H](Cc3ccc(-c4ccccc4)cc3)NC(=O)[C@H](C(C)C)NC2=O)c1` [Compound 1548] ({CH2CO}-[4Pal][Phe(4-COOH)]D[Phe(3-Me)]V[Bip]V[Orn][dL][Dab][Cha]VTC-NH2; thioether N-14), 18.4 nM.
Under `Cc1cccc(C[C@@H]2NC(=O)[C@H](CC(=O)O)NC(=O)[C@H](Cc3ccc(C(=O)O)cc3)NC(=O)[C@H](Cc3ccncc3)NC(=O)CSC[C@@H](C(N)=O)NC(=O)[C@H]([C@@H](C)O)NC(=O)[C@H](C(C)C)NC(=O)[C@H](CC3CCCCC3)NC(=O)[C@H](CCN)NC(=O)[C@@H](CC(C)C)NC(=O)[C@H](CCCN)NC(=O)[C@H](CCCNC(N)=O)NC(=O)[C@H](Cc3ccc(-c4ccccc4)cc3)NC(=O)[C@H](C(C)C)NC2=O)c1` [Compound 1549] ({CH2CO}-[4Pal][Phe(4-COOH)]D[Phe(3-Me)]V[Bip][Cit][Orn][dL][Dab][Cha]VTC-NH2; thioether N-14) stands 10.9 nM.
With `Cc1cccc(C[C@@H]2NC(=O)[C@H](CC(=O)O)NC(=O)[C@H](Cc3ccncc3)NC(=O)[C@H](CN)NC(=O)CSC[C@@H](C(N)=O)NC(=O)[C@H]([C@@H](C)O)NC(=O)[C@H](C(C)C)NC(=O)[C@H](CC(C)C)NC(=O)[C@H](CCN)NC(=O)[C@@H](CC(C)C)NC(=O)[C@H](CCCN)NC(=O)[C@H](C(C)C)NC(=O)[C@H](Cc3ccc(-c4ccccc4)cc3)NC(=O)[C@H](C(C)C)NC2=O)c1` [Compound 1550] ({CH2CO}-[Dap][4Pal]D[Phe(3-Me)]V[Bip]V[Orn][dL][Dab]LVTC-NH2; thioether N-14), the IC50 was found to be 94.5 nM.
Regarding `Cc1cccc(C[C@@H]2NC(=O)[C@H](CC(=O)O)NC(=O)[C@H](Cc3ccc(C(=O)O)cc3)NC(=O)[C@H](Cc3ccc(OCC(=O)O)cc3)NC(=O)CSC[C@@H](C(N)=O)NC(=O)[C@H]([C@@H](C)O)NC(=O)[C@H](C(C)C)NC(=O)[C@H](CC(C)C)NC(=O)[C@H](CCN)NC(=O)[C@@H](CC(C)C)NC(=O)[C@H](CCCN)NC(=O)[C@H](C(C)C)NC(=O)[C@H](Cc3ccc(-c4ccccc4)cc3)NC(=O)[C@H](C(C)C)NC2=O)c1` [Compound 1551] ({CH2CO}-Y(Carboxymethyl)[Phe(4-COOH)]D[Phe(3-Me)]V[Bip]V[Orn][dL][Dab]LVTC-NH2; thioether N-14), the IC50 amounted to 15.6 nM.
To `Cc1cccc(C[C@@H]2NC(=O)[C@H](CC(=O)O)NC(=O)[C@H](Cc3ccc(C(=O)O)cc3)NC(=O)[C@H](Cc3ccncc3)NC(=O)CSC[C@@H](C(N)=O)NC(=O)[C@H]([C@@H](C)O)NC(=O)[C@H](C(C)C)NC(=O)[C@H](CC3CCCCC3)NC(=O)[C@H](CCN)NC(=O)[C@@H](CC(C)C)NC(=O)[C@H](CCCN)NC(=O)[C@H](CCC(=O)O)NC(=O)[C@H](Cc3ccc(-c4ccccc4)cc3)NC(=O)[C@H](C(C)C)NC2=O)c1` [Compound 1552] ({CH2CO}-[4Pal][Phe(4-COOH)]D[Phe(3-Me)]V[Bip]E[Orn][dL][Dab][Cha]VTC-NH2; thioether N-14) belongs 21.8 nM.
